Test results published in ChEMBL document CHEMBL1147207 (Eur J Med Chem, 2007).
Active and inactive are the calls of the source. The calls are words filed in the database; no cut-off is given here.

Experiments:
Oxytocin receptor [1] = molecular target: T1, Oxytocin receptor (Homo sapiens, UniProt P30559); assay: Displacement of [3H]OT from human OT receptor expressed in HEK cells; assay type: cell-based, HEK293
T1 sequence (P30559 whole entry): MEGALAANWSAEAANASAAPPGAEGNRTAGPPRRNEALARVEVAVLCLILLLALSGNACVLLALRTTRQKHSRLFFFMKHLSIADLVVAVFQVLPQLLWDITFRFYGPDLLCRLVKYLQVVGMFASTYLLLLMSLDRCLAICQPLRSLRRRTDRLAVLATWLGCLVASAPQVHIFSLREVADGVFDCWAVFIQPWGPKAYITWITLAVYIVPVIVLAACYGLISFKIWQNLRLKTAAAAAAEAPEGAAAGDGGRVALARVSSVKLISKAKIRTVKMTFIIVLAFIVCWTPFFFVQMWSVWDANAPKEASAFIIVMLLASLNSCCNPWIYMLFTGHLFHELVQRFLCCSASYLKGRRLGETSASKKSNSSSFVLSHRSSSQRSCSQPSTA

[2] = molecular target: Vasopressin V1a receptor (Rattus norvegicus) (UniProt P30560); assay: Antagonist activity in phenoxybenzamine-treated rat by Pressor assay; settings: read-out: pA2 (converted)
Oxytocin receptor [3] = molecular target: T2, Oxytocin receptor (Rattus norvegicus, UniProt P70536); assay: Antagonist activity in rat uterus by uterotonic assay; assay type: functional, tissue-based; settings: read-out: pA2 (converted)
T2 sequence (P70536 whole entry): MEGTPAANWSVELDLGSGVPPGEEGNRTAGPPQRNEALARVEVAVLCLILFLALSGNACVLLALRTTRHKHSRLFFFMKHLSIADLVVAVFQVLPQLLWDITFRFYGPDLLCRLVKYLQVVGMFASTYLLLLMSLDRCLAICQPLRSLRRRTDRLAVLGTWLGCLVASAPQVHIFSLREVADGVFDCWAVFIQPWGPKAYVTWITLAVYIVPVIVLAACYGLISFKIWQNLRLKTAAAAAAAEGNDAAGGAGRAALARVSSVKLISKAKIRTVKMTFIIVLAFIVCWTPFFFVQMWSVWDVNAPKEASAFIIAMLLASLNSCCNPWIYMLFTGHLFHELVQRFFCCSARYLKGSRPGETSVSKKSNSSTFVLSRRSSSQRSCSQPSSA

[4] = molecular target: T3, Oxytocin receptor (Rattus norvegicus) (UniProt P70536); assay: Agonist activity in rat uterus by uterotonic assay; assay type: functional, tissue-based
T3 sequence (whole entry): T2 sequence (P70536 whole entry)

[5] = molecular target: Vasopressin V1a receptor (Rattus norvegicus) (UniProt P30560); assay: Agonist activity in phenoxybenzamine-treated rat up to 0.16 mg/kg by Pressor assay

Vasopressin V1a receptor (Rattus norvegicus), sequence (P30560 whole entry, looked up): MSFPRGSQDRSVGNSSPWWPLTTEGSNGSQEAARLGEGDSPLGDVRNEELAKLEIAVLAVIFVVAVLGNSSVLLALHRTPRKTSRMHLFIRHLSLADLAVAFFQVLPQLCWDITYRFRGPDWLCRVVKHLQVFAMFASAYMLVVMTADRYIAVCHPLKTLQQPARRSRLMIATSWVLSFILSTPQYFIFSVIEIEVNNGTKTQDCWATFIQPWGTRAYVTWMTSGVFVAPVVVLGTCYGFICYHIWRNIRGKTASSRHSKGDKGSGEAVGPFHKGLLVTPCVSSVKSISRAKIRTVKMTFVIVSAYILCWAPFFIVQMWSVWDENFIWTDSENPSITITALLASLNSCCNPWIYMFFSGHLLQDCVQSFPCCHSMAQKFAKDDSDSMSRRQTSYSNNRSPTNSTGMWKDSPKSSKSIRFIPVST

With CCOc1ccc(CC2NC(=O)CCSSC[C@@H](C(=O)N3Cc4ccccc4C[C@@H]3C(=O)N[C@@H](CC(C)C)C(=O)NCC(N)=O)NC(=O)[C@H](CC(N)=O)NC(=O)[C@H](CCC(N)=O)NC(=O)[C@H]([C@@H](C)CC)NC2=O)cc1 (stereo in doubt) the IC50 (Oxytocin receptor [1]) was 51 nM, the Kb [2] was greater than 1000 nM and the Kb (Oxytocin receptor [3]) was 6.31 nM. The Activity [4] was 0 IU/mg and the Activity [5] was “inactive”.
In the case of CCc1ccc(C[C@H]2NC(=O)CCSSC[C@@H](C(=O)N3CCC[C@H]3C(=O)N[C@@H](CC(C)C)C(=O)NCC(N)=O)NC(=O)[C@H](CC(N)=O)NC(=O)[C@H](CCC(N)=O)NC(=O)[C@H]([C@@H](C)CC)NC2=O)cc1, the Kb [2] is reported as 151 nM.
Work on CC[C@H](C)[C@@H]1NC(=O)[C@H](Cc2ccc(O)cc2)NC(=O)[C@@H](N)CSSC[C@@H](C(=O)N2Cc3ccccc3C[C@H]2C(=O)N[C@@H](CC(C)C)C(=O)NCC(N)=O)NC(=O)[C@H](CC(N)=O)NC(=O)[C@H](CCC(N)=O)NC1=O yielded an IC50 (Oxytocin receptor [1]) of 130 nM, a Kb [2] greater than 1000 nM and a Kb (Oxytocin receptor [3]) of 2510 nM. For the same compound, the Activity [4] was 2 IU/mg and the Activity [5] was “inactive”.
Compound CCc1ccc(C[C@H]2NC(=O)CCSSC[C@@H](C(=O)NC(C)(C)C(=O)N[C@@H](CC(C)C)C(=O)NCC(N)=O)NC(=O)[C@H](CC(N)=O)NC(=O)[C@H](CCC(N)=O)NC(=O)[C@H]([C@@H](C)CC)NC2=O)cc1 has a Kb [2] of 316 nM, a Kb (Oxytocin receptor [3]) of 5.01 nM and an Activity [4] of 0 IU/mg. The Activity [5] was “inactive”.
Work on CC[C@H](C)[C@@H]1NC(=O)[C@H](Cc2ccc(O)cc2)NC(=O)CCSSC[C@@H](C(=O)N2Cc3ccccc3C[C@H]2C(=O)N[C@@H](CC(C)C)C(=O)NCC(N)=O)NC(=O)[C@H](CC(N)=O)NC(=O)[C@H](CCC(N)=O)NC1=O yielded an IC50 (Oxytocin receptor [1]) of 103 nM, a Kb [2] greater than 1000 nM and a Kb (Oxytocin receptor [3]) of 35.5 nM. For the same compound, the Activity [4] was 3.5 IU/mg and the Activity [5] was “inactive”.
Work on CC[C@H](C)[C@@H]1NC(=O)[C@H](Cc2ccc(O)cc2)NC(=O)[C@@H](N)CSSC[C@@H](C(=O)N2Cc3ccccc3C[C@@H]2C(=O)N[C@@H](CC(C)C)C(=O)NCC(N)=O)NC(=O)[C@H](CC(N)=O)NC(=O)[C@H](CCC(N)=O)NC1=O yielded an IC50 (Oxytocin receptor [1]) of 730 nM, a Kb [2] greater than 1000 nM and a Kb (Oxytocin receptor [3]) of 100 nM. The Activity [4] was 0 IU/mg and the Activity [5] was “inactive”.
With CCOc1ccc(CC2NC(=O)CCSSC[C@@H](C(=O)N3Cc4ccccc4C[C@H]3C(=O)N[C@@H](CC(C)C)C(=O)NCC(N)=O)NC(=O)[C@H](CC(N)=O)NC(=O)[C@H](CCC(N)=O)NC(=O)[C@H]([C@@H](C)CC)NC2=O)cc1 (stereo in doubt) the IC50 (Oxytocin receptor [1]) was 176 nM, the Kb [2] was greater than 1000 nM and the Kb (Oxytocin receptor [3]) was 15.8 nM. The Activity [4] was 0 IU/mg and the Activity [5] was “inactive”.
